Source: patent publication US7192714B2, “LDL receptor signaling assays” (Board of Regents, The University of Texas System, priority 2001, dated 2007)

How the values were obtained:
pMstGV-APP construct = experiment: APP-Gal4/VP16 (pMstGV-APP) luciferase reporter gene assay in transfected 293 cells; format: cell-based, human; conditions: 100 nM TPA for 24 h
Experimental: (§1) Cell Culture and transfection of 293 cells: The human embryonic kidney cell line HEK 293 (CRL-1573, ATCC) was maintained in monolayer culture at 37° C. under a 8% CO2 atmosphere. On day 0 cells were set up at a density of 5×105 per 60 mm dish in Dulbecco's Modified Eagle's Medium (low glucose) containing 100 U/ml penicillin, 100 ug/ml streptomycin sulfate and 10% (v/v) FCS. On day one cells were transfected by calcium phosphate precipitation (MBS Kit™, Stratagene, La Jolla, Calif., used according to manufacturers' instructions) with 9 ug of the pG5 E1B-Luc plasmid, 0.5 ug of pCMV-b-Gal for internal control of transfection efficiency, the respective receptor construct and expression vectors for different adapter proteins or other components as indicated in the text. On day two treatment with TPA or other reagents was started as described above and cells were harvested 24 h to 48 h later.
(§2) Reporter gene assays: 293 cells were harvested for reporter gene assays 48 h after transfection. Their culture medium was removed and the cells were washed once with PBS. After addition of 400 ul “Reporter Lysis Buffer” (Promega, Madison, Wis.) per 60mm dish cells were processed according to manufacturers' instructions. Luciferase gene expression was analyzed using the “Luciferase Assay System” (Promega, Madison, Wis.). […]

LRP [1] = experiment: Endogenous LRP levels by Western blotting in MEF-1 cells; format: cell-based, mouse
Experimental: (§3) SDS-Page and immunoblot analysis: SDS-Page and immunoblotting were performed according to standard procedures. Briefly, equal amounts of protein as determined with the Coomassie Plus Protein Reagent (Pierce, Rockford, Ill.) were loaded on 4–12% SDS PA gels. After electrophoresis and protein transfer on a PVDF membrane immunoblot, analysis was carried out with rabbit polyclonal antibodies against a C-terminal fragment of LRP. Bound antibodies were visualized with peroxidase-conjugated anti-rabbit IgG by using the SuperSignal CL-HRP Substrate (Pierce, Rockford, Ill.) according to the manufacturer's instructions.
(§4) Then cell lysates were prepared and analyzed by Western Blotting. The antibody used for immunostaining is directed against LRP's C-terminus.
Decrease of LRP Levels after TPA Treatment is Time-Dependent. […] Then cell lysates were prepared and used for SDS-PAGE and Western Blotting. LRP was stained with an antibody directed against its cytoplasmic tail.

LRP [2] = experiment: Endogenous LRP levels by Western blotting in untransfected 293 cells; format: cell-based, human
Experimental: as §3, §4
TPA Treatment Leads To Decreased LRP Levels in 293 Cells. […] Then cell lysates were prepared and analyzed by Western Blotting. The antibody used for immunostaining is directed against LRP's C-terminus.

pMstGV-LDL-R construct = experiment: LDL-R-Gal4/VP16 (pMstGV-LDL-R) luciferase reporter gene assay in transfected 293 cells; format: cell-based, human; conditions: 100 nM TPA for 24 h
Experimental: as §1, §2

LRP-Gal4/VP16 = LRP-Gal4/VP16 luciferase reporter gene assay in transfected 293 cells; format: cell-based, human
Experimental: as §1
Reporter gene assays: 293 cells were harvested for reporter gene assays 48 h after transfection. Their culture medium was removed and the cells were washed once with PBS. After addition of 400 ul “Reporter Lysis Buffer” (Promega, Madison, Wis.) per 60mm dish cells were processed according to manufacturers' instructions. Luciferase gene expression was analyzed using the “Luciferase Assay System” (Promega, Madison, Wis.). A 10 s integral measurement of light emission from each reaction mixture was performed in a tube luminometer (Octopump II, MOM Instruments).
β-Gal assays for internal control of […] were carried out with an aliquot of the cell lysates prepared for the luciferase assay using the ‘Chemiluminescent b-Gal Detection Kit” (Clontech, Palo Alto, Calif.). Normalization of luciferase activity to b-Gal activity was done by dividing RLU values obtained with the first assay by those from the latter reaction. All transfections for reporter gene assays were repeated in at least two independent experiments.
Experimental Strategy. The Gal4/VP16 fusion protein, which consists of the DNA binding domain of the yeast Gal4 transcription factor and of the transactivating domain of the Herpes simplex virus protein VP16, is able to drive transcription from a luciferase reporter plasmid that contains five Gal4 binding elements in front of the adenoviral E1B minimal promoter and the firefly luciferase gene. […]
Treatment of 293 Cells with the Proteasome Inhibitor Lactacystin Stabilizes the Intracellular LRP-Cleavage Product. […] Subsequently cell lysates were prepared and examined for luciferase activity. β-Gal activity was measured to correct for transfection efficiency. […]

| Structure (SMILES) | luciferase activity, stimulated versus unstimulated (pMstGV-APP construct) | effect on endogenous LRP levels (LRP [1]; 100 nM TPA for 24 h or time indicated) | decrease of LRP levels, time course (LRP [1]; TPA for 0.5, 1.5, 5, 5, 6 and 24 h) | effect on endogenous LRP levels (LRP [2]; 100 nM TPA for 24 h or time indicated, untransfected 293 cells) | decrease of cellular LRP levels (LRP [2]; 100 nM TPA, various time periods up to 48 h, Western blot, antibody against LRP C-terminus, text names 293 and MEF-1 cells, heading 293) [%] | luciferase activity, stimulated versus unstimulated (pMstGV-LDL-R construct) | luciferase activity, elevation under stimulated versus unstimulated conditions (LRP-Gal4/VP16; 100 nM TPA for 24 h, pcDNA3.1-LRP-Gal4/VP16) | corrected luciferase activity (intracellular/intramembraneous LRP cleavage) versus unstimulated cells (LRP-Gal4/VP16; 100 nM TPA, time periods of 12, 16, 20 and 24, pcDNA3.1-LRP-Gal4/VP16) | luciferase signal enhancement (stabilization of intracellular LRP-cleavage product) (LRP-Gal4/VP16; 10 uM lactacystin for 24 h) | luciferase signal enhancement (stabilization of intracellular LRP-cleavage product) (LRP-Gal4/VP16; 50 uM lactacystin for 24 h) |
| --- | --- | --- | --- | --- | --- | --- | --- | --- | --- | --- |
| CCCCCCCCCCCCCC(=O)O[C@@H]1[C@@H](C)[C@@]2(O)[C@@H](C=C(CO)C[C@]3(O)C(=O)C(C)=C[C@@H]23)[C@@H]2C(C)(C)[C@]12OC(C)=O [TPA, Phorbol 12-myristate 13-acetate] | equivalent elevated activity under both stimulated and unstimulated conditions | Lowers Endogenous LRP Levels | Time-Dependent | Lowers Endogenous LRP Levels | ≤ 90 | negligible activity under stimulated and unstimulated conditions | up to 10 fold | linear increase | – | – |
| CC(=O)N[C@@H](CSC(=O)[C@]1([C@@H](O)C(C)C)NC(=O)[C@H](C)[C@@H]1O)C(=O)O [lactacystin, Lactacystin] | – | – | – | – | – | – | – | – | about 25 fold | about 25 fold |
